Target: T1, CwTPS8 (Curcuma wenyujin, UniProt A0A8E5B8H5)
T1 construct: complete ORF in pMAL-His (pMAL-c2x with His(8)-tag), E. coli BL21(DE3), Ni-NTA purified; tag removal not described
Experiment: GC-MS of hexane-extracted products
Format: biochemical
Settings: formation of main product β-caryophyllene; 50 mM HEPES pH 7.5, 10 mM MgCl2, 5 mM DTT, 5% glycerol; 30°C, 10 min; 10-150 µM FPP; read-out: K m of β-caryophyllene

T1 sequence (A0A8E5B8H5 entry or part of it): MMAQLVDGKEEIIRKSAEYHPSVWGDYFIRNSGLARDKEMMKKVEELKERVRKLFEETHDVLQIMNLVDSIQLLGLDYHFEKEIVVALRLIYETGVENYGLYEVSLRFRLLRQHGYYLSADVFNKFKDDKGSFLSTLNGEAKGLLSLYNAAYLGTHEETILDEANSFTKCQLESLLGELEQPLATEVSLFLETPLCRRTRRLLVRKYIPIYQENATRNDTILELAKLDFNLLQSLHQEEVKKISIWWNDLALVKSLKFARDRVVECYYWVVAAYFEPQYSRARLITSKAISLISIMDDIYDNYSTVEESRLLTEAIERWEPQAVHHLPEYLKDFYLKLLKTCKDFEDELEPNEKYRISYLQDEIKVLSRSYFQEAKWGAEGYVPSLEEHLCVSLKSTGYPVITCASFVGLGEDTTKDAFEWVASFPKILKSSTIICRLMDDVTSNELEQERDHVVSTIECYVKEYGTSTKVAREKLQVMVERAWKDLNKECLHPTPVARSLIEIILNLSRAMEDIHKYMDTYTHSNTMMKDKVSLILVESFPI

Km: 28 µM
Compound: CC(C)=CCC/C(C)=C/CC/C(C)=C/CO[P@@](=O)(O)OP(=O)(O)O [FPP]

Reference: article PMC12532338, “Characterization of a sesquiterpene synthase and a short-chain dehydrogenase in zerumbone biosynthesis and the applications in engineered Saccharomyces cerevisiae” (Frontiers in Plant Science, 2025)
